In US7312233B2, “Amide derivatives as ion-channel ligands and pharmaceutical compositions and methods of using the same” (Renovis, Inc., priority 2005, dated 2007):

Target: T1, HsVR1 (Homo sapiens, UniProt Q8NER1)
T1 construct: expressed in transfected cells; host or cells: Xenopus oocytes injected with HsVR1 RNA
Assay: Two-electrode voltage clamp recording (OpusXpress) of capsaicin induced VR1 current in Xenopus oocytes injected with HsVR1 RNA
Type: cell-based
Settings: 250 nM capsaicin induced VR1 current, n=5 oocytes, FIG. 1
Procedure: Oocytes are prepared by surgically removing Xenopus ovaries obtained from NASCO. The oocytes are isolated by enzymatic dissociation using collagenase (Worthington, 2 mg/ml). Oocytes are then individually injected with HsVR1 RNA. Each oocyte receives 64 nl of RNA solution in water at a concentration of 0.5 μg/μl. Injected oocytes are stored in standard oocyte incubation solution, ND96, containing (in mM) 96 NaCl, 2 KCl, 1 MgCl2, 1.8 CaCl2 and 50 μg/ml Gentamicin at 16° C. […] Eight oocytes are placed in the recording chambers. Each oocyte is impaled by 2 glass electrodes having resistances of 0.5 to 1 MOhm when filled with a 3 M KCl solution. Electrode advancement and oocyte impalement are under software control (OpusXpress® 1.1 Molecular Devices Corporation). The solutions are prepared in 96 well plates and robotically pipetted into the oocyte recording chambers by an 8 channel pipettor. Test solution delivery to the oocytes during the experiment is also under software control. […] The standard test concentrations for the compounds tested here usually range from 0.3 to 2000 nM. Quantitative measurement of VR1 current block is done by calculating the area under the curve described by the inward current. […] These points are then plotted on a logarithmic scale and fitted by a Hill function. The IC50 is calculated from the resulting Hill fit.

T1 sequence (Q8NER1 whole entry): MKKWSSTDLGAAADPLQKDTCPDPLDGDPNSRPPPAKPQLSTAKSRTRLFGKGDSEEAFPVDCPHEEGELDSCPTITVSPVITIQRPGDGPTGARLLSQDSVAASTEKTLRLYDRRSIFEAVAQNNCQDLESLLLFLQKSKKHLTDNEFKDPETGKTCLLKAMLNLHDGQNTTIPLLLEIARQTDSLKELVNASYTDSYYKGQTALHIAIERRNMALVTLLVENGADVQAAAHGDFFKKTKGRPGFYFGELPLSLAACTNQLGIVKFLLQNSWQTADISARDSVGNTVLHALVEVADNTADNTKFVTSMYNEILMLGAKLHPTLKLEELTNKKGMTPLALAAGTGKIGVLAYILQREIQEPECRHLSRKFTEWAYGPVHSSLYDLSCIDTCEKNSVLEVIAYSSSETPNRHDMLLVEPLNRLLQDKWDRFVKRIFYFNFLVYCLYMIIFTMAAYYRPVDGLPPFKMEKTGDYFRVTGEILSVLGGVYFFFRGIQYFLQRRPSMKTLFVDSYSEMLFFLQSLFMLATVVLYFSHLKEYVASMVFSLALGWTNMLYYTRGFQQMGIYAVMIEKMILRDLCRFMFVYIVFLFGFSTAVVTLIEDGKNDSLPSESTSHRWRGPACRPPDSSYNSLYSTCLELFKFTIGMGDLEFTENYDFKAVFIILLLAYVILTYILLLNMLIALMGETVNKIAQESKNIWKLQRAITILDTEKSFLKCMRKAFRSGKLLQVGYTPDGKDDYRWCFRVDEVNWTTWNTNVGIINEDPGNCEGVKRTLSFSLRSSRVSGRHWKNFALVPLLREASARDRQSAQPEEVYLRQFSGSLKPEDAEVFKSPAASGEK

Compound | IC50 [nM]
Cc1nc2cc(NC(=O)c3ccc(C4CC4)cc3C)ccc2s1 [Compound 7, 4-cyclopropyl-2-methyl-N-(2-methylbenzo[d]thiazol-5-yl)benzamide] | 178 ± 26

Same assay, conditions: +/- standard error measurement, FIG. 1 legend

Compound | IC50 [nM]
Cc1nc2cc(NC(=O)c3ccc(C4CC4)cc3C)ccc2s1 [Compound 7, 4-cyclopropyl-2-methyl-N-(2-methylbenzo[d]thiazol-5-yl)benzamide] | 177

Target: T2, hVR1 (Homo sapiens, UniProt Q8NER1)
T2 construct: expressed in transfected cells; host or cells: T-REx HEK 293 (Invitrogen), pcDNA5/TO vector
Assay: Calcium uptake assay (Fura2, Flex Station) in HEK 293 cells expressing hVR1
Type: cell-based
Settings: 0.3 μM compound, inhibition of agonist-induced calcium influx, 0.3 µM

T2 sequence (Q8NER1 whole entry): as above

Compound | % Inhib. @ 0.3 μM
Cc1cc(C2CC2C(F)(F)F)ccc1C(=O)Nc1cnc2ccccc2c1 (single isomer, unassigned) [Compound 17, 2-methyl-N-(quinolin-3-yl)-4-(2-(trifluoromethyl)cyclopropyl)benzamide] | +++ (compound exhibited 50-75% inhibition of calcium ion influx)
Cc1cc(C2CC2C(F)(F)F)ccc1C(=O)Nc1ccc2c(c1)OCCO2 (single isomer, unassigned) [Compound 8, N-(2,3-dihydrobenzo[b][1,4]dioxin-6-yl)-2-methyl-4-(2-(trifluoromethyl)cyclopropyl)benzamide] | + (compound exhibited 0-25% inhibition of calcium ion influx)
Cc1cc(C2CC2C(F)(F)F)ccc1C(=O)Nc1ccc2c(c1)OCCO2 (single isomer, unassigned) [Compound 13, N-(2,3-dihydrobenzo[b][1,4]dioxin-6-yl)-2-methyl-4-(2-(trifluoromethyl)cyclopropyl)benzamide] | +++ (compound exhibited 50-75% inhibition of calcium ion influx)
Cc1cc(C2CC2C(F)(F)F)ccc1C(=O)Nc1cnc2ccccc2c1 (single isomer, unassigned) [Compound 19, 2-methyl-N-(quinolin-3-yl)-4-(2-(trifluoromethyl)cyclopropyl)benzamide] | + (compound exhibited 0-25% inhibition of calcium ion influx)
Cc1cc(C2CC2C(F)(F)F)ccc1C(=O)Nc1cnc2ccccc2c1 (single isomer, unassigned) [Compound 18, 2-methyl-N-(quinolin-3-yl)-4-(2-(trifluoromethyl)cyclopropyl)benzamide] | +++ (compound exhibited 50-75% inhibition of calcium ion influx)
Cc1cc(C2CC2C(F)(F)F)ccc1C(=O)Nc1cnc2ccccc2c1 (single isomer, unassigned) [Compound 20, 2-methyl-N-(quinolin-3-yl)-4-(2-(trifluoromethyl)cyclopropyl)benzamide] | ++ (compound exhibited 25-50% inhibition of calcium ion)

Same assay, conditions: HEK293, 0.3 μM compound, inhibition of agonist-induced calcium influx, read-out: % Inhib. @ 0.3 μM

Compound | inhibition at 0.3 µM [%]
COc1cccc(NC(=O)c2ccc(C3CC3(Cl)Cl)cc2)c1 (centres unmarked) [Compound 4, 4-(2,2-dichlorocyclopropyl)-N-(3-methoxyphenyl)benzamide] | > 75
COc1ccc(NC(=O)c2ccc(C3CC3C(F)(F)F)cc2C)cn1 (single isomer, unassigned) [Compound 10, N-(6-methoxypyridin-3-yl)-2-methyl-4-(2-(trifluoromethyl)cyclopropyl)benzamide] | 25 to 50
Cc1cc(C2CC2)ccc1C(=O)Nc1ccc(C(C)(C)C)cc1 [Compound 2, N-(4-tert-butylphenyl)-4-cyclopropyl-2-methylbenzamide] | 0 to 25
COc1cccc(NC(=O)c2ccc(C3CC3)cc2C)c1 [Compound 1, 4-cyclopropyl-N-(3-methoxyphenyl)-2-methylbenzamide] | 50 to 75
Cc1nc2cc(NC(=O)c3ccc(C4CC4)cc3C)ccc2s1 [Compound 7, 4-cyclopropyl-2-methyl-N-(2-methylbenzo[d]thiazol-5-yl)benzamide] | > 75
COc1cccc(NC(=O)c2ccc(C3CC3C(F)(F)F)cc2C)c1 (single isomer, unassigned) [Compound 16, N-(3-methoxyphenyl)-2-methyl-4-(2-(trifluoromethyl)cyclopropyl)benzamide] | 25 to 50
Cc1nc2cc(NC(=O)c3ccc(C4CC4(Cl)Cl)cc3)ccc2s1 (centres unmarked) [Compound 6, 4-(2,2-dichlorocyclopropyl)-N-(2-methylbenzo[d]thiazol-5-yl)benzamide] | > 75
Cc1cc(C2CC2C(F)(F)F)ccc1C(=O)Nc1ccc2sc(CO)nc2c1 (single isomer, unassigned) [Compound 15] | > 75
Cc1cc(C2CC2)ccc1C(=O)Nc1cnc2ccccc2c1 [Compound 5, 4-cyclopropyl-2-methyl-N-(quinolin-3-yl)benzamide] | > 75
O=C(Nc1cnc2ccccc2c1)c1ccc(C2CC2(Cl)Cl)cc1 (centres unmarked) [Compound 3, 4-(2,2-dichlorocyclopropyl)-N-(quinolin-3-yl)benzamide] | 50 to 75
Cc1cc(C2CC2C(F)(F)F)ccc1C(=O)Nc1cccc2c1CCCC2 (single isomer, unassigned) [Compound 9, 2-methyl-N-(5,6,7,8-tetrahydronaphthalen-1-yl)-4-(2-(trifluoromethyl)cyclopropyl)benzamide] | 0 to 25
Cc1nc2cc(NC(=O)c3ccc(C4CC4C(F)(F)F)cc3C)ccc2s1 (single isomer, unassigned) [Compound 11, 2-methyl-N-(2-methylbenzo[d]thiazol-5-yl)-4-(2-(trifluoromethyl)cyclopropyl)benzamide] | > 75
